Consider 31 molecules from ChEMBL document CHEMBL3352091, “Natural product-based design, synthesis and biological evaluation of anthra[2,1-d]thiazole-6,11-dione derivatives from rhein as novel antitumour agents” (Eur J Med Chem, 2014).

The structures appear in SMILES notation.

The test system of assay [1] is HeLa. Nature of the assay: Antitumor activity against human HeLa cells after 3 days by SRB assay. The settings on record: 72 h. Format: functional, cell-based.
Assay [2] has as its system A549. Nature of the assay: Antitumor activity against human A549 cells after 3 days by SRB assay. The settings on record: A549, 72 h. In kind it is functional, cell-based. (In general: Sulforhodamine B stains cellular protein and so reports cell mass.)
Assay [3] deals with A549. As to the kind of experiment: Potency index, ratio of IC50 for rhein to IC50 for test compound against human A549 cells after 3 days by SRB assay. Format: functional.
The test system of assay [4] is HeLa. As to the kind of experiment: Potency index, ratio of IC50 for rhein to IC50 for test compound against human HeLa cells after 3 days by SRB assay. Format: functional.

In the case of `O=C1c2c(O)cccc2C(=O)c2c1c(O)cc1nc(N3CCCCC3)sc21`, the IC50 with HeLa [1] is 55.8 µM; in the assay with A549 [2] it was over 100 µM.

For `O=C1c2c(O)cccc2C(=O)c2c1c(O)cc1nc(N3CCCC3)sc21`, the half-maximal inhibitory concentration (IC50) in the assay with HeLa [1] stood at 44.8 µM; with A549 [2], 148 µM.

For `O=C1c2c(O)cccc2C(=O)c2c1c(O)cc1nc(N3CCCCCC3)sc21`, the IC50 in the assay on HeLa [1] stood at 41 µM; in the assay with A549 [2], 39.4 µM.

For the molecule `CC1CCN(c2nc3cc(O)c4c(c3s2)C(=O)c2cccc(O)c2C4=O)CC1`, the concentration for half-maximal inhibition (IC50) is 60.4 µM in the assay on HeLa [1] and 66 µM in the assay with A549 [2].

Consider `O=C1c2c(O)cccc2C(=O)c2c1c(O)cc1nc(N3CCCCC3CCO)sc21` (centres undefined), for which the IC50 in the assay with HeLa [1] stood at 16.7 µM; with A549 [2], 19.6 µM.

For the molecule `O=C1c2c(O)cccc2C(=O)c2c1c(O)cc1nc(N3CCCC(O)C3)sc21` (centres undefined), the concentration for half-maximal inhibition (IC50) in the assay on HeLa [1] amounted to 26.9 µM; in the assay on A549 [2], 21.1 µM.

Turning to `CC(C)N(c1nc2cc(O)c3c(c2s1)C(=O)c1cccc(O)c1C3=O)C(C)C`, the concentration for half-maximal inhibition (IC50) in the assay on HeLa [1] was 118 µM; in the assay on A549 [2], over 100 µM.

As to `CCN(CC)c1nc2cc(O)c3c(c2s1)C(=O)c1cccc(O)c1C3=O`, the IC50 was 86.7 µM in the assay with HeLa [1] and 108 µM in the assay with A549 [2].

As to `O=C1c2c(O)cccc2C(=O)c2c1c(O)cc1nc(N3CCOCC3)sc21`, the IC50 in the assay with HeLa [1] came out at 30.3 µM; in the assay on A549 [2], 33.4 µM.

As for `CN(C)C1CCN(c2nc3cc(O)c4c(c3s2)C(=O)c2cccc(O)c2C4=O)CC1`, the results for the half-inhibitory concentration (IC50) in the assay on HeLa [1] and with A549 [2] were 11.8 µM and 6.3 µM, respectively.

For the molecule `O=C1c2c(O)cccc2C(=O)c2c1c(O)cc1nc(N3CCN(C4CC4)CC3)sc21`, the figures for the IC50 with HeLa [1] and with A549 [2] were 58.1 µM and 65.7 µM, respectively.

Consider `CCOC(=O)N1CCN(c2nc3cc(O)c4c(c3s2)C(=O)c2cccc(O)c2C4=O)CC1`, for which the half-maximal inhibitory concentration (IC50) amounted to 68.4 µM in the assay on HeLa [1] and 54.8 µM in the assay with A549 [2].

Regarding `CC(C)N1CCN(c2nc3cc(O)c4c(c3s2)C(=O)c2cccc(O)c2C4=O)CC1`, the IC50 with HeLa [1] came out at 14.8 µM; in the assay with A549 [2], 15 µM.

On to `CCN1CCN(c2nc3cc(O)c4c(c3s2)C(=O)c2cccc(O)c2C4=O)CC1`, for which the “Ratio IC50” value in the assay on A549 [3] and in the assay on HeLa [4] was 30 throughout. Further, the half-maximal inhibitory concentration (IC50) with HeLa [1] amounted to 4.3 µM; in the assay on A549 [2] it was 5.4 µM.

As for `CN1CCN(c2nc3cc(O)c4c(c3s2)C(=O)c2cccc(O)c2C4=O)CC1`, the results for the half-maximal inhibitory concentration (IC50) in the assay on HeLa [1] and with A549 [2] were 27.4 µM and 20.2 µM, respectively.

Take `O=C1c2c(O)cccc2C(=O)c2c1c(O)cc1nc(N3CCN(CCO)CC3)sc21`: the IC50 in the assay on HeLa [1] is 4.5 µM; in the assay with A549 [2] it was 6.5 µM.

On to `O=CN1CCCN(c2nc3cc(O)c4c(c3s2)C(=O)c2cccc(O)c2C4=O)CC1`, for which the IC50 in the assay on HeLa [1] was found to be 19.7 µM; in the assay on A549 [2] it was 15.2 µM.

As to `CN(CC(O)CO)c1nc2cc(O)c3c(c2s1)C(=O)c1cccc(O)c1C3=O` (centres undefined), the half-inhibitory concentration (IC50) in the assay on HeLa [1] turned out to be 23.2 µM; in the assay with A549 [2], 30.4 µM.

`CN(CCO)c1nc2cc(O)c3c(c2s1)C(=O)c1cccc(O)c1C3=O`: the IC50 is 30.6 µM in the assay on HeLa [1] and 45.9 µM in the assay with A549 [2].

As to `O=C1c2c(O)cccc2C(=O)c2c1c(O)cc1nc(N3CCN(CCN4CCCC4)CC3)sc21`, the values for the IC50 in the assay on HeLa [1] and in the assay on A549 [2] were 81.1 µM and 70.3 µM, respectively.

`O=C1c2c(O)cccc2C(=O)c2c1c(O)cc1nc(N3CCN(CCN4CCCCC4)CC3)sc21`: the concentration for half-maximal inhibition (IC50) in the assay with HeLa [1] amounted to 86.9 µM; in the assay with A549 [2] it was 46.4 µM.

Regarding `CC1CCN(CCN2CCN(c3nc4cc(O)c5c(c4s3)C(=O)c3cccc(O)c3C5=O)CC2)CC1`, the IC50 in the assay on HeLa [1] stood at 82.1 µM; with A549 [2], 38.2 µM.

In the case of `O=C1c2c(O)cccc2C(=O)c2c1c(O)cc1nc(N3CCN(CCN4CCOCC4)CC3)sc21`, the half-inhibitory concentration (IC50) in the assay with HeLa [1] and in the assay on A549 [2] was over 100 µM in each case.

With `CCCCN(CCCC)CCN1CCN(c2nc3cc(O)c4c(c3s2)C(=O)c2cccc(O)c2C4=O)CC1`, the IC50 is over 100 µM with HeLa [1] and 57.1 µM in the assay with A549 [2].

As to `CCN(CC)CCN1CCN(c2nc3cc(O)c4c(c3s2)C(=O)c2cccc(O)c2C4=O)CC1`, the IC50 with HeLa [1] and in the assay with A549 [2] was over 100 µM each time.

On to `CN(C)CCN1CCN(c2nc3cc(O)c4c(c3s2)C(=O)c2cccc(O)c2C4=O)CC1`, for which the values for the IC50 in the assay on HeLa [1] and with A549 [2] were over 100 µM and 32.8 µM, respectively.

Turning to `CC(C)N(CCN1CCN(c2nc3cc(O)c4c(c3s2)C(=O)c2cccc(O)c2C4=O)CC1)C(C)C`, the IC50 in the assay with HeLa [1] and with A549 [2] was over 100 µM in each case.

Regarding `CCN1CCN(CCN2CCN(c3nc4cc(O)c5c(c4s3)C(=O)c3cccc(O)c3C5=O)CC2)CC1`, the IC50 in the assay on HeLa [1] was found to be 71.3 µM; in the assay on A549 [2] it was 23.4 µM.

Consider `CN1CCN(CCN2CCN(c3nc4cc(O)c5c(c4s3)C(=O)c3cccc(O)c3C5=O)CC2)CC1`, for which the IC50 turned out to be 80.1 µM in the assay with HeLa [1] and 24.2 µM in the assay with A549 [2].

Consider `CC(C)N1CCN(CCN2CCN(c3nc4cc(O)c5c(c4s3)C(=O)c3cccc(O)c3C5=O)CC2)CC1`, for which the IC50 in the assay with HeLa [1] was over 100 µM; with A549 [2] it was 54 µM.

With `O=C(O)c1cc(O)c2c(c1)C(=O)c1cccc(O)c1C2=O` [RHEIN], the half-maximal inhibitory concentration (IC50) was 92.2 µM in the assay on HeLa [1] and 95.8 µM in the assay on A549 [2].

As usually defined, the IC50 is the concentration that gives 50% inhibition.
